Reference: patent US20250255847A1, “[…]s: Novel Drugs for Triple Negative Breast Cancer” (SIMMARON RSEARCH INC, priority 2024, published 2025)
pEC50, pIC50: −log10 of the molar value.

How the values were obtained:
TNBC cells = conditions: cited from earlier work
tumor burden = conditions: in vivo; cited from earlier work
purified STAT1 protein = target: T1, purified STAT1 protein (Homo sapiens, UniProt P42224); assay: Protein thermal shift (PTS) assay of STAT1; type: binding; conditions: 10 and 20 μM
T1 sequence (P42224 1-750): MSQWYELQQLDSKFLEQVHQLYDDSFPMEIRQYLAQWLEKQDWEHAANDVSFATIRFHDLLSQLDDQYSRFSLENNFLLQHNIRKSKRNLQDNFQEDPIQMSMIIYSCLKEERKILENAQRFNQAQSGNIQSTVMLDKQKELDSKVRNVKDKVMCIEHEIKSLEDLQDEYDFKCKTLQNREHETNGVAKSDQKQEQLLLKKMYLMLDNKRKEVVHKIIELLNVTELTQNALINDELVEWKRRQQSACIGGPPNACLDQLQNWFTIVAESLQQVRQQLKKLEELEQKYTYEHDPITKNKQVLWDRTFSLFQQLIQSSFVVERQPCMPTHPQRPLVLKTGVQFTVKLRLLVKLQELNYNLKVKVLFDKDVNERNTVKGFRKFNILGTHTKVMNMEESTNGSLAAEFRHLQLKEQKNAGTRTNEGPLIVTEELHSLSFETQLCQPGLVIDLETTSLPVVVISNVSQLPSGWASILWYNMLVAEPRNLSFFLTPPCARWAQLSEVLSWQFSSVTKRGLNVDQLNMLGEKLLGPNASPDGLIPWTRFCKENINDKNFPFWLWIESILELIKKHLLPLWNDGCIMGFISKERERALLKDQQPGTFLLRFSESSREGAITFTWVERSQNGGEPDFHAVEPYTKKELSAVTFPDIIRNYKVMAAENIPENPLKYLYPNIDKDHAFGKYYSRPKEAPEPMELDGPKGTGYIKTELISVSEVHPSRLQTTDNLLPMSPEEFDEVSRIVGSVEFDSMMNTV
Experimental: (§1) FIG. 5 illustrates an embodiment of the present invention and illustrates evaluations of SIM-1 and SIM-2 as STAT3 inhibitors. (A) Protein thermal shift assay was performed to assess the melting of purified recombinant STAT3 (blue; 0.5 μg protein) (Tm=melting temperature=68.88° C.). The representative melting curves were derived after adding SIM-1 (red; 4 nM), SIM-2 (purple; 8 nM), and positive control stattic (grey; 20 nM) to the STAT3 protein. The differences of melting temperature (ΔTm) between pure protein and protein+ligands are −4.54° C., −4.16° C., and 0.39° C. for SIM-1, SIM-2, and stattic (ΔTm^cut-off>2° C.). (B) Phospho protein array analysis was conducted in cell lysates of MDA-MB-468 cells treated with DMSO control (top left), 25 ng/mL EGF (top right), EGF+10 nM SIM-1 (bottom left), and EGF+SIM-2 (bottom right) for 24 hrs. Each colored arrowhead represents a specific phosphoprotein, and the description was added in the bottom of array images. S=serine and Y=tyrosine. Relative levels of (C) Tyrosine 705 (Y705) phosphorylated STAT3, (D) Serine 727 (S727) phosphorylated STAT3, (E) Tyrosine 693 (Y693) phosphorylated STAT4, (F) Tyrosine 694 ([…]) phosphorylated STAT5A had been derived after normalizing the spot densities (n=5) with respective β-actin spots. Results are mean±SD of five different spot analyses. One-way ANOVA was adopted to test the significance of mean between groups at **p<0.01, and ****p<0.0001. Ns=no significance. Thermal shift assays of increasing doses of (G) SIM-1, (H) SIM-2, and (I) stattic with purified STAT1 protein (0.5 μg protein). The respective ΔTm values were given with the plot after matching with the color code. Similarly, full-length STAT5b protein melting was assessed with (J) SIM-1, (K) SIM-2, and (L) stattic. Results are confirmed after three different experiments.
(§2) To confirm the result, PTS assay of STAT1 with SIM-1 (FIG. 5G), SIM-2 (FIG. 5H), and stattic (FIG. 5I) was performed. […] Similar results were observed while performing the binding assay with STAT5b.

[1] = target: T2, full-length STAT5b protein (Homo sapiens, UniProt P51692); assay: Protein thermal shift binding assay with STAT5b; conditions: increasing doses
T2 construct: full-length STAT5b protein melting was assessed with (J) SIM-1, (K) SIM-2, and (L) stattic
T2 sequence (P51692 1-787): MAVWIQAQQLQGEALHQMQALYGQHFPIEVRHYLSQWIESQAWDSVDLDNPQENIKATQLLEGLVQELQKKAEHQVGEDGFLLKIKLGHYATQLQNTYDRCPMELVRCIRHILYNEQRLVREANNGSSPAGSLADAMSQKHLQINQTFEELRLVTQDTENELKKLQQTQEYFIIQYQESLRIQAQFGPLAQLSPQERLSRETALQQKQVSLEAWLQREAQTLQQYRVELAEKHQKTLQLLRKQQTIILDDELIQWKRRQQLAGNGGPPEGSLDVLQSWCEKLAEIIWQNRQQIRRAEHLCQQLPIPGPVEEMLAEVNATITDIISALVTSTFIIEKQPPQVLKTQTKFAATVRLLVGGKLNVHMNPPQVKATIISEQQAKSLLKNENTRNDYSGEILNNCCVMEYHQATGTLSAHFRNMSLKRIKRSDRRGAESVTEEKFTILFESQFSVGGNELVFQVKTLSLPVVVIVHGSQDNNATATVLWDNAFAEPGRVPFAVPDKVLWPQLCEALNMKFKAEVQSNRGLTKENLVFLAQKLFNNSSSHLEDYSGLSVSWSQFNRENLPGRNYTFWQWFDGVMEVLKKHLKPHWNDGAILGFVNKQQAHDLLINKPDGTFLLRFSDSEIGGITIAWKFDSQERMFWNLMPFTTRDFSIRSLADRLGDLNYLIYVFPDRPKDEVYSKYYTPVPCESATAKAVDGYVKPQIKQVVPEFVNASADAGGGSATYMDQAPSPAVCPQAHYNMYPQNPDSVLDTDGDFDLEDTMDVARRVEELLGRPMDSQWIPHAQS
Experimental: as §1, §2

STAT3 [2] = target: T3, STAT3 (Homo sapiens, UniProt P40763); conditions: read-out: IC50 as STAT3 inhibitor; cited from earlier work
Target sequence in this assay (P40763 whole entry, species assumed): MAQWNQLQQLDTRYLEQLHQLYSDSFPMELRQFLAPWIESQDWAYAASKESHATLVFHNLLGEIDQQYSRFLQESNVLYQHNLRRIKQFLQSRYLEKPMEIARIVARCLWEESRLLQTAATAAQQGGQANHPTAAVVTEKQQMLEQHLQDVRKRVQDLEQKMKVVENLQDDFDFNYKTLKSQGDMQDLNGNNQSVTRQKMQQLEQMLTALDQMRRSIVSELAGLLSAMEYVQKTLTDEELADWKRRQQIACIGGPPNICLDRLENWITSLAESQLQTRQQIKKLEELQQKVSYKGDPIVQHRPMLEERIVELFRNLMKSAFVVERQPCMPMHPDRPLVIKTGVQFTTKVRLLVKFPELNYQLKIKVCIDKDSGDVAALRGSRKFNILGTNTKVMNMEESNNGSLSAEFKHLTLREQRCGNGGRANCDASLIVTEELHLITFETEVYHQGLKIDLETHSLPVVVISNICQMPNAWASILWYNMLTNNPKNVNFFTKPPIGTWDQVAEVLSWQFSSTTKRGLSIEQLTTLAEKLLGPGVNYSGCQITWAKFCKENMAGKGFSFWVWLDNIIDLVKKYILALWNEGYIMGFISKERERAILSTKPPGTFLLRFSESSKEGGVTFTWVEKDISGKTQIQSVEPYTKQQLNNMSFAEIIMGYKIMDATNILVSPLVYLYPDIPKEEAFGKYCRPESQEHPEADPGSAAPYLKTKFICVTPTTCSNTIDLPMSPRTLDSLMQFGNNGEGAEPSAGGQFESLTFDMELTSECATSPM

STAT3 [3] = target: T3, STAT3; assay: Protein thermal shift assay with recombinant STAT3; type: binding; parameters: purchased Active motif 81095
Experimental: as §1
Target sequence in this assay (P40763 whole entry): as the sequence (P40763 whole entry, species assumed) above
FIG. 6 illustrates an embodiment of the present invention and illustrates dose-dependent curves of maximum fluorescence for SIM1 and SIM2. Protein thermal shift assay of recombinant STAT3 was performed with increasing doses of (A) SIM-1, (B) SIM-2, and (C) positive control “Stattic”. The maximum fluorescence for each dose was derived and then plotted in GraphPad Prism software with respective doses. The resultant non-liner hyperbolic curves provide half-maximal binding (EC50) for all three compounds.
This example provides a representative study of the present disclosure to test if SIM1 and SIM2 served as ligands of STAT3. Therefore, the present invention adopted a protein thermal shift assay in which […] of recombinant human STAT3 protein (active motif) was incubated with increasing doses of SIM1 and SIM2 followed by the execution of melting analysis starting from 25 to 95° C. as described elsewhere.

SMILES	CT50 (TNBC cells)	dose effectively reducing tumor burden (tumor burden)	doses causing apoptosis of TNBC tumors (TNBC cells)	shift in the melting curve of STAT1 (purified STAT1 protein)	shift in the melting curve of STAT5b [1]	pIC50 (STAT3 [2])	ΔTm of STAT3 (STAT3 [3]; 20 nM ligand, cut-off 2° C.)	pEC50 (STAT3 [3]; non-linear hyperbolic binding curve, read-out: EC50 (half-maximal binding, maximum fluorescence versus dose))
NC(=O)CC[C@H](NC(=O)[C@@H]1CC[C@@H]2CCN(C(=O)CCCCCC#Cc3cccc4c3CN(C3CCC(=O)NC3=O)C4=O)C[C@H](NC(=O)c3cc4cc(C(F)(F)P(=O)(O)O)ccc4[nH]3)C(=O)N21)C(=O)NC(c1ccccc1)c1ccccc1 (stereo partly drawn) [SD36]	micromolar range	25-50 mg/Kg body weight (bwt)	–	–	–	–	–	–
O=[N+]([O-])c1ccc2c(c1)S(=O)(=O)C=C2 [stattic, reference compound]	micromolar range	–	10 to 20 µM	did not produce any shift	unable to produce any significant shift	5.30	0.39 °C	~5.70
